Assay results published in patent publication US20090130070A1, “METHOD OF TREATMENT” (The University of Queensland, priority 2004, published 2009).

Test system: Human epidermal keratinocytes (HaCaT cells)
Assay: "scrape" in vitro wound healing model (wound closure of a scraped confluent monolayer)
Type: cell-based
Details: for wound width, day 1: day 1 (24 hours); for wound width, day 2: day 2 (48 hours)
Method: The “scrape” in vitro wound healing model has been previously presented in the literature (Li, F. et al., 2000, Exp Cell Res., 258(2): 245-253; Firth J. D. et al., 2004, J. Invest. Dermatol., 122(1): 222-231). In this model a scrape across a confluent monolayer of cells is used to simulate a wound and the effect of agents added to serum free media is tested on the rate of closure of the gap.
Human epidermal keratinocytes (HaCaT cells) were plated at a density of 1×10^5 cells/well into Nunc 6 well plates in Dulbecco's Modified Eagle Medium (DMEM) containing 10% fetal bovine serum (FBS) benzyl penicillin (100 IU/ml), streptomycin […] confluence (2 days) monolayers were “wounded” with a 1 ml pipette tip (0.5 mm width) by scraping the tip across the centre of the well. The wells were then washed 5 times with DMEM. One ml of either DMEM with 10% FBS, DMEM or DMEM with: 3, 6, 12 or 24 mgs/ml bovine fetuin A (Sigma), 6.25, 12.5, 25 or 50 μg/ml peptide TGF peptide antagonist (Corresponding to residues 41-65 of TGFβ-1-3:—Huang S. S. et al., 1997, Journal of Biological Chemistry, 272(43):27155-27159) and 2.1, 4.2, 8.4 and 16.8 mg/ml bovine thyroglobulin was added to each well (2 replicates per plate, 4 plates). These concentrations were calculated to have equivalent antagonistic effect on the binding of TGFβ-1 to its receptor for each of the compounds. All DMEM solutions used contained benzyl penicillin (100 IU/ml), streptomycin ([…]) and fungizone (250 mg/ml). A mark was placed on the base of each well at right angles to the “wound” and the wound was photographed at the intersection of the mark and wound with a Nikon EOS 300 digital camera fitted to a JenaMed (Ziess Jena) inverted microscope (50×). Images were taken at the same positions 24 and 48 hours after addition of the treatment media. Digital images were analysed with Image Pro (Media Cybernetics) image analysis software and an image of a Nikon stage micrometer was used for calibration of length measurements. Results were summarized as the wound width after 24 and 48 hours.

[1] = 6.25 μg/ml TGF peptide antagonist in DMEM
[2] = 12.5 μg/ml TGF peptide antagonist in DMEM
[3] = 25 μg/ml TGF peptide antagonist in DMEM
[4] = 50 μg/ml TGF peptide antagonist in DMEM
[5] = 2.1 mg/ml bovine thyroglobulin in DMEM
[6] = 4.2 mg/ml bovine thyroglobulin in DMEM
[7] = 8.4 mg/ml bovine thyroglobulin in DMEM
[8] = 16.8 mg/ml bovine thyroglobulin in DMEM

## TGFB-R inhibitor: peptide TGF peptide antagonist corresponding to residues 41-65 of TGFβ-1-3 (Huang S. S. et al., 1997) (ANFCLGPCPYIWSLDTQYSKVLALY; Transforming growth factor beta-1; UniProt P01137 319-343, looked up, fragment)
[1]
  wound width, day 0: 0.6779
  wound width, day 1: 0.5473
  wound width, day 2: 0.4866
[2]
  wound width, day 0: 0.6751
  wound width, day 1: 0.5515
  wound width, day 2: 0.4839
[3]
  wound width, day 0: 0.6643
  wound width, day 1: 0.5341
  wound width, day 2: 0.4688
[4]
  wound width, day 0: 0.6371
  wound width, day 1: 0.554
  wound width, day 2: 0.498

## Thyroglobulin: bovine thyroglobulin, comparator that binds members of the TGF-β superfamily
[5]
  wound width, day 0: 0.6587
  wound width, day 1: 0.413
  wound width, day 2: 0.4941
[6]
  wound width, day 0: 0.6428
  wound width, day 1: 0.5772
  wound width, day 2: 0.5393
[7]
  wound width, day 0: 0.6669
  wound width, day 1: 0.5742
  wound width, day 2: 0.5909
[8]
  wound width, day 0: 0.6152
  wound width, day 1: 0.5981
  wound width, day 2: 0.6132
